ChEMBL document CHEMBL4732159, “Discovery of 6-Oxo-4-phenyl-hexanoic acid derivatives as RORγt inverse agonists showing favorable ADME profile” (Bioorg Med Chem Lett, 2021)
One block for each molecule: values may come before it.

Legend:
[1] = Intrinsic clearance in human liver microsomes
[2] = Apparent permeability across basal to apical membrane in human Caco-2 cells
[3] = Half life in mouse at 1 umol/kg, iv; conditions: in vivo
[4] = Intrinsic clearance in mouse liver microsome; conditions: microsomes
[5] = Half life in mouse at 2 umol/kg, po; conditions: in vivo
in vivo [6] = conditions: mouse, po, 2 umol/kg
[7] = Protein binding in mouse plasma
[8] = Protein binding in human plasma
[9] = Clearance in mouse at 2 umol/kg, po or 1 umol/kg, iv; conditions: in vivo
[10] = Apparent permeability across apical to basal membrane in human Caco-2 cells
in vivo [11] = conditions: mouse, po, 2 umol/kg; remark: listed apart in the source

- CLH [1]: 1900 µL/min/mg
SMILES: Cc1c(CN2CCN(C(=O)C3CCCC3)[C@@H](C)C2)cc(F)cc1NC(=O)CCc1ccccc1

- CLH [1]: 21 µL/min/mg
SMILES: Cc1c(CN2CCN(C(=O)C3CCCC3)[C@@H](C)C2)cc(F)cc1NC(=O)CC(CCC(=O)O)c1ccccc1 (stereo in doubt; 6b)

The next lines start with the molecule.

SMILES: Cc1c(CN2CCN(C(=O)C3CCCC3)[C@@H](C)C2)cc(F)cc1NC(=O)CC(CCC(=O)O)c1ccccc1 (stereo in doubt; 6a)
- Papp B→A [2]: 39 ×10⁻⁶ cm/s
- half-life [3]: 1.2 h
- CLH [4]: 17 µL/min/mg
- half-life [5]: 1.5 h
- AUC (in vivo [6]): 0.2 µM·h
- fraction unbound [7]: 0.028
- fraction unbound [8]: 0.006
- CLH [1]: < 10 µL/min/mg
- clearance [9]: 76.7 mL/min/kg
- Papp A→B [10]: 1.3 ×10⁻⁶ cm/s
- bioavailability (in vivo [11]): 46%

SMILES: C[C@H]1CN(Cc2cc(Cl)cc(NC(=O)CC(CCC(=O)O)c3ccccc3)c2Cl)CCN1C(=O)C1CCCC1 (stereo in doubt; 12a)
- Papp B→A [2]: 45 ×10⁻⁶ cm/s
- half-life [3]: 1.5 h
- CLH [4]: < 10 µL/min/mg
- half-life [5]: 1.5 h
- AUC (in vivo [6]): 4 µM·h
- fraction unbound [7]: 0.006
- fraction unbound [8]: 0.003
- CLH [1]: 31 µL/min/mg
- clearance [9]: 8.67 mL/min/kg
- Papp A→B [10]: 13 ×10⁻⁶ cm/s
- bioavailability (in vivo [11]): 100%

SMILES: C[C@H]1CN(Cc2cc(Cl)cc(NC(=O)CC(CCC(=O)O)c3ccccc3)c2Cl)CCN1C(=O)C1CCCC1 (stereo in doubt; 12b)
- CLH [1]: < 10 µL/min/mg
